Results from patent US5260330A, “Substituted anilides” (BASF Aktiengesellschaft, priority 1990, dated 1993).
Counter-ions that a name gives are not always drawn.

System: guinea pig hearts
Assay: ECG measurement of QT interval prolongation in isolated guinea pig hearts (Langendorff perfusion)
Set-up: species or system guinea pig (male Duncin-Hartley)
Conditions: for EC20: Cavia porcellus, 0.25 h, isolated guinea pig heart, Langendorff perfusion, 37° C, cumulative administration at 15 min intervals into the perfusate, ED20% by linear regression of log dose, read-out: ED20% (dose at which there is a 20% increase in the QT interval from the initial figure); for Relative effect ED20% (D-sotalol)/ED20% (Ex.): ratio relative to D-sotalol, QT interval, guinea pig heart
Description: In these the cardiac cycle is divided into systole (contraction of the heart), also called QT interval, and diastole (relaxation of the heart with filling of the ventricles). Repolarization inhibitors increase the QT interval with a negligible effect on the atrioventricular conduction time (PQ interval) and the period of isometric contraction (QRS time, from the start of systole until the semilunar valves open) (see Pschyrembel, 254th edition, 1982).
The activity of the compounds according to the invention as repolarization inhibitors can be investigated in animal experiments by ECG measurements on, for example, guinea pig hearts (see Basic Res. Cardiol. 82 (1987) 437; J. Pharmacol. Methods 21 (1989) 195). Used to compare the activities of a number of substances is, for example, the dose of an agent at which there is a 20% increase in the QT interval from the initial figure (ED20%).This is done by plotting the logarithm of the doses of the particular substances against the experimentally found relative changes in the QT interval, and using linear regression to determine the equation of a straight line from which the ED20% can be calculated.
This method was used to determine the ED20% values for the compounds of Examples 2 and 3 (see Table). D-sotalol was used as comparative substance.
The experimental animals were male Duncin-Hartley guinea pigs with a body weight of 300 to 350 g. 30 min after administration of 1250 I.U. of heparin/kg of body weight into the abdominal cavity, the animals were sacrificed by a blow to the back of the neck. After the common carotid arteries had been cut for exsanguination, the thoracic cavity was opened, and the heart was dissected out and attached to a perfusion apparatus. The Langendorff perfusion was carried out with Krebs-Henseleit solution (NaCl 6896 mg/l; KCl 350 mg/l; MgSO4 285 mg/l; CaCl2 370 mg/l; KH2 PO4 161 mg/l; NaHCO3 2090 mg/l; glucose 2000 mg/l) enriched with oxygen and heated to 37° C. The perfusion volume per unit time was adjusted to 4 to 6 ml/min for a total volume of 100 ml, and the perfusion pressure was adjusted to 60 to 70 mm Hg. Circulating perfusion was carried out after equilibration for 30 min.
The ECG measurements were made via two silver electrodes attached to the surface of the heart in the upper region of the left coronary artery and on the rear of the heart at the level of the valve plane. The PQ and QT intervals, the QRS time and the heart rate were measured.
The substance was administered cumulatively at intervals of 15 min into the perfusate.

Compound | EC20 [nM] | Relative effect ED20% (D-sotalol)/ED20% (Ex.)
Cc1ccccc1C=CC(=O)Nc1cc(C)c(OCCN2CCCC2)c(C)c1 [Example 2, [3',5'-Dimethyl-4'-(2-(N-pyrrolidinyl)ethoxy)]-(2-methylphenyl)acrylanilidefumarate] | 500 | 32
Cc1ccccc1CCC(=O)Nc1cc(C)c(OCCN2CCCC2)c(C)c1 [Example 3, [3',5'-Dimethyl-4'-(2-(N-pyrrolidinyl)ethoxy)]-3-(2-methylphenyl)propionanilide fumarate] | 310 | 51
CC(C)NCC(O)c1ccc(NS(C)(=O)=O)cc1 [D-sotalol, 4'-[1-hydroxy-2-(isopropylamino)ethyl]methanesulfonanilide, reference compound] | 16000 | –
